Key:
[1] = Rat PK study, IV and oral TID amifampridine phosphate (Example 4); format: in vivo; details: rat, after amifampridine phosphate
Method: The objective of this study was to determine the absolute bioavailability of amifampridine phosphate and the pharmacokinetics of amifampridine and its 3-N-acetyl metabolite upon single-dose IV and single-day oral dose (TID) administration.
Amifampridine phosphate was administered by IV bolus at 0.8 mg/kg (in saline) to 6 rats/sex and by oral gavage (in water) TID (approximately 6 hours apart) at dose levels of 2, 8, and 25 mg/kg/dose (equivalent to 6, 24, and 75 mg/kg/day) to 12 rats/sex/group, with oral Dose 1 given to fasted rats and Dose 2 and 3 with food ad libitum. For IV bolus dose and oral Dose 1 (dose administration No. 1), blood samples were collected from three animals/sex/timepoint at predose and 0.083 (IV only), 0.17, 0.25, 0.33, 0.5, 0.75, 1, 1.25 (IV only), 1.5, 2, 2.5, 3, and 6 hours post-dose; 0.17, 0.5, and 6 hours following the second oral dose (dose administration No. 2); and 0.17, 0.25, 0.33, 0.5, 0.75, 1, 1.5, 2, 3, 4, 6, 8, and 10 hours following the third oral dose (dose administration No. 3). The second and third oral doses were given at 6 and 12 hours, respectively, after the first dose. LC-MS/MS was used to quantify amifampridine, 3-N-acetyl and 4-N-acetyl amifampridine metabolites in rat plasma samples. […] Noncompartmental analysis was applied to the mean plasma amifampridine and 3-N-acetyl metabolite concentration data for male and female rats. […]

[2] = molecular target: T1, hKv1.7 (Homo sapiens, UniProt Q96RP8); experiment: Whole cell patch clamp inhibition of hKv1.7 current in transiently transfected CHO cells (Example 5); format: cell-based; details: 10,000 μM in HB-PS
T1 construct: expressed in transfected cells; host or cells: CHO cells (transient transfection)
Method: Chemicals used in solution preparation were purchased from Sigma-Aldrich (St. Louis, Mo.), unless otherwise noted, and were of ACS reagent grade purity or higher. Stock solutions of each test article (100.104 mM and 1.00 mM 3,4-DAP phosphate and 100.023 mM and 336.335 mM N-(4-aminopyridin-3-yl) acetamide HCl) were prepared in sterile water, stored refrigerated and used within one day. […] All test article solutions contained 3% sterile water. The test articles were prepared in sufficient volume to run the assay (typically 50 mL).
CHO cells, transiently transfected with hKv1.7, were cryopreserved in 90% FBS and 10% DMSO. Frozen vials of cells were thawed rapidly in a 37° C. water bath. Cells were transferred to a 15 mL conical tube, 10 mL of growth media (Ham's/F12-PS/10% FBS) was added, the suspension was gently mixed and the tube was centrifuged at approximately 250×g for 5 min. The medium was removed, the cell pellet was resuspended in 20 mL of medium, and cells were triturated to disperse cell clumps. For electrophysiology use, 2 mL of the cell suspension was plated in each 35 mm cell culture dish. Recording began 2-3 hours after plating once the cells settled out of the media and adhered to the bottom of the culture dish. […]
Cells were transferred to the recording chamber and superfused with vehicle control solution. […] Onset and steady state inhibition of hKv1.7 current due to the test article was measured using a pulse pattern with fixed amplitudes (depolarization: +10 mV amplitude, 300 ms duration) repeated at 10-second intervals from a holding potential of −80 mV. Current amplitude was measured at the end of the step to +10 mV. Current was monitored until a new steady state was achieved. […] The IC50 for sustained current was calculated for 3,4-DAP phosphate salt.
For 3,4-DAP phosphate salt, the concentration-response relationship was evaluated at seven concentrations (1, 10, 30, 100, 300, 1000 and 3000 μM) and for N-(4-aminopyridin-3-yl) acetamide HCl salt, the concentration-response relationship was evaluated at three concentrations (100, 1000 and 3000 μM).

T1 sequence (Q96RP8 whole entry): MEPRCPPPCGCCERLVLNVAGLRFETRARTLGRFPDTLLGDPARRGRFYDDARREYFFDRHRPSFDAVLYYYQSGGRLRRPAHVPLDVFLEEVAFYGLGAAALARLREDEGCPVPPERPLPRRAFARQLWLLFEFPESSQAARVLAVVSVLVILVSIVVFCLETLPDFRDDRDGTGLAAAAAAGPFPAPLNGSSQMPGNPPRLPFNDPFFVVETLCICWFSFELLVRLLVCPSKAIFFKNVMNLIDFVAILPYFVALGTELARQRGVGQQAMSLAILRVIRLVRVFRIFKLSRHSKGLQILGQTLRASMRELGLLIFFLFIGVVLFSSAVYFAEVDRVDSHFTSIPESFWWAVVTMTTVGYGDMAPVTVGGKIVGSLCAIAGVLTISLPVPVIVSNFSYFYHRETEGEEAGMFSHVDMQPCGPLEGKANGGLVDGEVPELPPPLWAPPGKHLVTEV

Cmax in plasma [1] [µg/mL] | solubility in test formulation [2] | Compound
< 0.025 | – | CC(=O)Nc1ccncc1N [4-N-acetyl metabolite]
– | visible precipitate was observed | CC(=O)Nc1cnccc1N.Cl [N-(4-aminopyridin-3-yl) acetamide HCl]

Source: patent US11274332B2, “Methods of administering 3,4-diaminopyridine” (SERB SA, priority 2011, dated 2022)
